Laboratory results published in patent publication EP4603105A1, “PHARMACEUTICAL COMPOSITION CONTAINING CYCLIC COMPOUND HAVING SELECTIVE KRAS INHIBITORY EFFECT AGAINST HRAS AND NRAS” (CHUGAI SEIYAKU KABUSHIKI KAISHA, priority 2022, dated 2024).

Columns and labels:
[1] = biological target: GDP-bound NRAS wild-type protein (Homo sapiens, UniProt P01111); assay: Binding to NRAS by surface plasmon resonance (SPR), KD and KD ratio to KRAS; conditions: ratio of KD for GDP-bound NRAS wild-type protein to KD for KRAS
How it was run: (§1)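 Running buffer contained 10 µM GDP and 10 mM MgCl2 to keep RAS in the GDP state, with 4% DMSO at pH 7.4. Compounds were flowed at 100 µL/min in 75 s steps of rising concentration over captured biotin-Avi RAS at 30°C. Sensorgrams were fitted 1:1 for KD.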

[2] = biological target: HRAS wild-type protein (Homo sapiens, UniProt P01112); assay: Binding to HRAS by surface plasmon resonance (SPR), KD and KD ratio to KRAS; conditions: ratio of KD for HRAS wild-type protein to KD for KRAS
How it was run: as §1

[3] = system: human lung cancer strain NCI-H441; assay: NCI-H441 cell proliferation inhibitory activity (CellTiter-Glo, 4 days); format: cell-based; conditions: NCI-H441 cells, 4 days, read-out: NCl-H441 IC50
How it was run: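 Step one: dispense the test compound in serial DMSO dilutions. Step three: add the reagent and measure […].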

[4] = biological target: GDP-bound KRAS wild-type protein (Homo sapiens, UniProt P01116); assay: Binding to KRAS by surface plasmon resonance (SPR), dissociation constant KD; conditions: Single Cycle Kinetics
How it was run: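 Affinity is measured by surface plasmon resonance at 30°C against captured, GDP-loaded RAS carrying a biotinylated Avi tag. Compounds are titrated by single-cycle kinetics, and KD comes from a 1:1 fit.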

Sequence of GDP-bound KRAS wild-type protein (P01116 1-188 isoform P01116-2): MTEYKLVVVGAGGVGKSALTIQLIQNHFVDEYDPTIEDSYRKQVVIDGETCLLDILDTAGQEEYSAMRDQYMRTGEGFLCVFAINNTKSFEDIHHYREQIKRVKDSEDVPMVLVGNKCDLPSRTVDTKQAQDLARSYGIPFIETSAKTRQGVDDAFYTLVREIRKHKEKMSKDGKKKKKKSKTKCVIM
Sequence of HRAS wild-type protein (P01112 whole entry): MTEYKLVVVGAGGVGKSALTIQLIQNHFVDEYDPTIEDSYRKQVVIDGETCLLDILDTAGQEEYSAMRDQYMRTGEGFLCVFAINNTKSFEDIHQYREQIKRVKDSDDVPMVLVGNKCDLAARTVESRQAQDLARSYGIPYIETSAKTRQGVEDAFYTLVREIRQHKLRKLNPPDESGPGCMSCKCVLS
Sequence of GDP-bound NRAS wild-type protein (P01111 whole entry): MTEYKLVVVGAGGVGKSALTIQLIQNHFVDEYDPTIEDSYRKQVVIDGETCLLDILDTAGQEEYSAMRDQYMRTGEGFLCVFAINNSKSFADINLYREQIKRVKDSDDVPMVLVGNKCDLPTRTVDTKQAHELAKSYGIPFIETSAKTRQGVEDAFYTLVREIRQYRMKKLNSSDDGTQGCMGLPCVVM

Structure (SMILES) | NRAS /KRAS [1] | HRAS /KRAS [2] | IC50 [3] | Kd [4]
CCCO[C@@H]1C[C@H]2C(=O)NC3(CC(C)(C)C3)C(=O)N(C)[C@@H](C3CCCC3)C(=O)N(C)[C@H](C(=O)N(C)CC)CC(=O)N(C)[C@@H](COCC)C(=O)N[C@@H]([C@@H](C)CC)C(=O)N3C[C@@H](C)C[C@H]3C(=O)N(C)[C@H]3C/C=C\CCN(C3=O)[C@@H](Cc3ccc(C(F)(F)F)cc3)C(=O)N(C)CC(=O)N[C@@H](CCc3cc(F)c(C(F)(F)F)c(F)c3)C(=O)N2C1 [PP3472] | A (a compound having 10 or more and less than 20 is denoted as A) | A (a compound having 10 or more and less than 20 is denoted as A) | 24.3 nM | 3 nM
CCC[C@H]1C(=O)N[C@@H]([C@@H](C)CC)C(=O)N(C2CC2)CC(=O)N(C)[C@H]2C/C=C\CCN(C2=O)[C@@H](Cc2ccc(C(F)(F)F)cc2)C(=O)N(C)CC(=O)N[C@@H](CCc2cc(F)c(C(F)(F)F)c(F)c2)C(=O)N2C[C@H](OCC)C[C@H]2C(=O)NC2(CCCC2)C(=O)N(C)[C@@H](C2CCCC2)C(=O)N(C)[C@H](C(=O)N(C)C)CC(=O)N1C [PP3473] | AA (a compound having 20 or more is denoted as AA) | B (a compound having 3 or more and less than 10 is denoted as B) | 13.5 nM | 0.53 nM
CCC[C@H]1C(=O)N[C@@H]([C@@H](C)CC)C(=O)N2CCC[C@H]2C(=O)N(C)[C@H]2C/C=C\CCN(C2=O)[C@@H](Cc2ccc(C(F)(F)F)cc2)C(=O)N(C)CC(=O)N[C@@H](CCc2cc(F)c(C(F)(F)F)c(F)c2)C(=O)N2C[C@H](OCC)C[C@H]2C(=O)NC2(CCCC2)C(=O)N(C)[C@@H](C2CCCC2)C(=O)N(C)[C@H](C(=O)N(C)C)CC(=O)N1C [PP3474] | A (a compound having 10 or more and less than 20 is denoted as A) | A (a compound having 10 or more and less than 20 is denoted as A) | 14.8 nM | 0.43 nM
CCO[C@@H]1C[C@H]2C(=O)NC3(CCCC3)C(=O)N(C)[C@@H](C3CCCC3)C(=O)N(C)[C@H](C(=O)N(C)C)CC(=O)N(C)[C@@H]([C@@H](C)OC)C(=O)N[C@@H]([C@@H](C)CC)C(=O)N(C3CC3)CC(=O)N(C)[C@H]3C/C=C\CCN(C3=O)[C@@H](Cc3ccc(C(F)(F)F)cc3)C(=O)N(C)CC(=O)N[C@@H](CCc3cc(F)c(C(F)(F)F)c(F)c3)C(=O)N2C1 [PP3476] | A (a compound having 10 or more and less than 20 is denoted as A) | A (a compound having 10 or more and less than 20 is denoted as A) | 15.2 nM | 0.37 nM
CCO[C@@H]1C[C@H]2C(=O)NC3(CCCC3)C(=O)N(C)[C@@H](C3CCCC3)C(=O)N(C)[C@H](C(=O)N(C)C)CC(=O)N(C)[C@@H]([C@@H](C)OC)C(=O)N[C@@H]([C@@H](C)CC)C(=O)N3CCC[C@H]3C(=O)N(C)[C@H]3C/C=C\CCN(C3=O)[C@@H](Cc3ccc(C(F)(F)F)cc3)C(=O)N(C)CC(=O)N[C@@H](CCc3cc(F)c(C(F)(F)F)c(F)c3)C(=O)N2C1 [PP3477] | A (a compound having 10 or more and less than 20 is denoted as A) | A (a compound having 10 or more and less than 20 is denoted as A) | 44.7 nM | 0.51 nM
CCC[C@H]1C(=O)N[C@@H]([C@@H](C)CC)C(=O)N(C2CC2)CC(=O)N(C)[C@H]2C/C=C\CCN(C2=O)[C@@H](Cc2ccc(C)cc2)C(=O)N(C)CC(=O)N[C@@H](CCc2cc(F)c(C(F)(F)F)c(F)c2)C(=O)N2C[C@H](OCC)C[C@H]2C(=O)NC2(CCCC2)C(=O)N(C)[C@@H](C2CCCC2)C(=O)N(C)[C@H](C(=O)N(C)C)CC(=O)N1C [PP3479] | A (a compound having 10 or more and less than 20 is denoted as A) | A (a compound having 10 or more and less than 20 is denoted as A) | 11.7 nM | 0.51 nM
